Assays:
[1] = tested on: Cystic fibrosis transmembrane conductance regulator (Homo sapiens), P13569 [F508del]; assay: Potentiation of CD4-HRP tagged CFTR F508del mutant NBD1 (unknown origin) expressed in MDCK cells assessed as increase in chloride current by measuring fold increase in luminescence signal incubated for 24 hrs relative to control; type: cell-based; details: filed as activator
[2] = tested on: Cystic fibrosis transmembrane conductance regulator (Homo sapiens), P13569 [F508del]; assay: Potentiation of CFTR F508del mutant (unknown origin) expressed in rat FRT cells assessed as increase in chloride current by measuring maximal effect at 30 uM in presence of forskolin relative to control; type: cell-based; details: filed as activator
[3] = biological target: Cystic fibrosis transmembrane conductance regulator (Homo sapiens, UniProt P13569, F508DEL); assay: Potentiation of CFTR F508del mutant activity (unknown origin)
[4] = biological target: Cystic fibrosis transmembrane conductance regulator (Homo sapiens, UniProt P13569, W1282X); assay: Potentiation of CFTR W1282X mutant (unknown origin) expressed in rat FRT cells; type: cell-based
[5] = tested on: Cystic fibrosis transmembrane conductance regulator (Rattus norvegicus), P34158 [UNDEFINED MUTATION]; assay: Potency index, ratio of genistein EC50 to test compound EC50 for potentiation of CFTR F508del mutant in rat FRT cells assessed as increase in iodide influx in presence of forskolin; type: cell-based
[6] = biological target: Cystic fibrosis transmembrane conductance regulator (Rattus norvegicus, UniProt P34158, F508DEL); assay: Potentiation of CFTR F508del mutant in rat FRT cells assessed as increase in iodide influx in presence of forskolin; type: cell-based
Chain of Cystic fibrosis transmembrane conductance regulator (Rattus norvegicus, UniProt P34158, F508DEL) (P34158 whole entry F508del, looked up): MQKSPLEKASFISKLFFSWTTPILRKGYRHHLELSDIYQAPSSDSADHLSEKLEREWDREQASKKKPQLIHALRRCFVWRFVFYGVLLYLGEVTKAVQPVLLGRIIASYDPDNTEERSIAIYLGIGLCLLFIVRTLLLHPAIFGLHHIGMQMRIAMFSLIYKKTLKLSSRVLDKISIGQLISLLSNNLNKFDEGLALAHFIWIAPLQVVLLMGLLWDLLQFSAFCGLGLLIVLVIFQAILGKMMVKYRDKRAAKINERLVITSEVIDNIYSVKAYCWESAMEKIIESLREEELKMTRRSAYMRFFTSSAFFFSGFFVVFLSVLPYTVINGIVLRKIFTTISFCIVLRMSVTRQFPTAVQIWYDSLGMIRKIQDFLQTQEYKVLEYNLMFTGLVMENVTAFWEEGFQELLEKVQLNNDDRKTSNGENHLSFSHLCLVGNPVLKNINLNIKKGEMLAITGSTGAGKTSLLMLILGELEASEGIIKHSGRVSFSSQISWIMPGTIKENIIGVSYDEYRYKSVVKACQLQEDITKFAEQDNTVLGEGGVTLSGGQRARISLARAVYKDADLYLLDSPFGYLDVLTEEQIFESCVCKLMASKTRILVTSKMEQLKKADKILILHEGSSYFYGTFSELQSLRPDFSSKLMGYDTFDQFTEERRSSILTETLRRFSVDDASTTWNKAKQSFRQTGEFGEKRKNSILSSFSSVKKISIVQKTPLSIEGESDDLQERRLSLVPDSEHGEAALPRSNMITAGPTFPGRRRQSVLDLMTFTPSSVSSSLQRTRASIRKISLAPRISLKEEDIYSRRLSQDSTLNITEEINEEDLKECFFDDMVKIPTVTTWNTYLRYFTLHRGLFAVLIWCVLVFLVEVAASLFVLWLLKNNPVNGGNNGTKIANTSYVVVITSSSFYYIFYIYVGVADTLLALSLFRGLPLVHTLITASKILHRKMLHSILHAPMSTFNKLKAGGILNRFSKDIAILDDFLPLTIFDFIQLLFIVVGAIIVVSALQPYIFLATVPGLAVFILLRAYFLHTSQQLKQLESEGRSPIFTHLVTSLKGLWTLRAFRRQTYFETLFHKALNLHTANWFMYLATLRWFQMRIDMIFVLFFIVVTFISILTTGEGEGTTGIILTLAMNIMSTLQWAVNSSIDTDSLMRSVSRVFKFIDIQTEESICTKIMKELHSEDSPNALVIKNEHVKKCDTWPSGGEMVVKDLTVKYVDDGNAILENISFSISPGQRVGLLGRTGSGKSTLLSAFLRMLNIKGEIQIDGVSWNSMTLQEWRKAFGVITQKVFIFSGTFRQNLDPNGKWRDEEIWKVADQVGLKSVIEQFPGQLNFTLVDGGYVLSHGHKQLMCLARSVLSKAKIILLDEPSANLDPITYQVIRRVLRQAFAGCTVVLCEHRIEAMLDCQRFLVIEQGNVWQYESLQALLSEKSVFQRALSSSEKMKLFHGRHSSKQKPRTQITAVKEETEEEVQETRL

Chain of Cystic fibrosis transmembrane conductance regulator (Homo sapiens), P13569 [F508del] (P13569 as listed by the source): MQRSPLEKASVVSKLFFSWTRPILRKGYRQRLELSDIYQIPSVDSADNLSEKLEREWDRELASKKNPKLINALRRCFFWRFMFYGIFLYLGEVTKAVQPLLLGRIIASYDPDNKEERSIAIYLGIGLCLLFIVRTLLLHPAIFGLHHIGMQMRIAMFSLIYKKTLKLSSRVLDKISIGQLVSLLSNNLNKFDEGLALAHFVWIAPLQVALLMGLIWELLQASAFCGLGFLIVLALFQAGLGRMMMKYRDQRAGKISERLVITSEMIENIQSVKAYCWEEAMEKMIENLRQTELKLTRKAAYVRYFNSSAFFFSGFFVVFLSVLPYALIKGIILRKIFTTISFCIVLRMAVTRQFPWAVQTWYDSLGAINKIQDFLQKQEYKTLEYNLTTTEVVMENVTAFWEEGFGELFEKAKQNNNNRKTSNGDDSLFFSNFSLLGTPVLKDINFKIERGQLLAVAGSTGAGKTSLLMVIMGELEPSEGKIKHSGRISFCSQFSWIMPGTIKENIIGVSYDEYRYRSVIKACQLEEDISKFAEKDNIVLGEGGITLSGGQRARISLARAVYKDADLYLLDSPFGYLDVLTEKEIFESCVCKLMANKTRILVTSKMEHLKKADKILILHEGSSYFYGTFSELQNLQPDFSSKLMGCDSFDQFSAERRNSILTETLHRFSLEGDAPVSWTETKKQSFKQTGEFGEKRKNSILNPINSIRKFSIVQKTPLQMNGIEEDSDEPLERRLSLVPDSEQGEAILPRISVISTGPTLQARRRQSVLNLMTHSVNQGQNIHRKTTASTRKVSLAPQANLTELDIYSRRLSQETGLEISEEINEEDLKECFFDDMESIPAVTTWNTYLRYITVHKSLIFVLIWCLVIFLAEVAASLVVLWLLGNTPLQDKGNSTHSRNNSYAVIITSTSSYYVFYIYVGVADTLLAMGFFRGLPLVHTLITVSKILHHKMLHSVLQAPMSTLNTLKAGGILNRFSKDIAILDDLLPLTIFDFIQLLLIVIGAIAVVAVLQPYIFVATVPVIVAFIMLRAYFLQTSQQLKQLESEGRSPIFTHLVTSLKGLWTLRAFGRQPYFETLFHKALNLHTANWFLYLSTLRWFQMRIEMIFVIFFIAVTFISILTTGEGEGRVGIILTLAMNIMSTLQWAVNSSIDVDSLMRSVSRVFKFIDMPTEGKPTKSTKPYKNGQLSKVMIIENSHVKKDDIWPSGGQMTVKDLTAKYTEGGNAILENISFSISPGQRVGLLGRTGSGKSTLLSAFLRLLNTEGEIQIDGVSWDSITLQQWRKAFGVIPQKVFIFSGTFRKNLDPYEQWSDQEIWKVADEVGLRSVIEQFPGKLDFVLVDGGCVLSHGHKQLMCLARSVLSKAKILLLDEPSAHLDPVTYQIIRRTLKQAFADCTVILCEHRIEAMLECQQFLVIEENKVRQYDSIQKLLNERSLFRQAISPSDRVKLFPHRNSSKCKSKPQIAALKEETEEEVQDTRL
Chain of Cystic fibrosis transmembrane conductance regulator (Homo sapiens, UniProt P13569, F508DEL) (P13569 as listed by the source): as above
Chain of Cystic fibrosis transmembrane conductance regulator (Rattus norvegicus), P34158 [UNDEFINED MUTATION] (P34158 whole entry, looked up, stated change not applied): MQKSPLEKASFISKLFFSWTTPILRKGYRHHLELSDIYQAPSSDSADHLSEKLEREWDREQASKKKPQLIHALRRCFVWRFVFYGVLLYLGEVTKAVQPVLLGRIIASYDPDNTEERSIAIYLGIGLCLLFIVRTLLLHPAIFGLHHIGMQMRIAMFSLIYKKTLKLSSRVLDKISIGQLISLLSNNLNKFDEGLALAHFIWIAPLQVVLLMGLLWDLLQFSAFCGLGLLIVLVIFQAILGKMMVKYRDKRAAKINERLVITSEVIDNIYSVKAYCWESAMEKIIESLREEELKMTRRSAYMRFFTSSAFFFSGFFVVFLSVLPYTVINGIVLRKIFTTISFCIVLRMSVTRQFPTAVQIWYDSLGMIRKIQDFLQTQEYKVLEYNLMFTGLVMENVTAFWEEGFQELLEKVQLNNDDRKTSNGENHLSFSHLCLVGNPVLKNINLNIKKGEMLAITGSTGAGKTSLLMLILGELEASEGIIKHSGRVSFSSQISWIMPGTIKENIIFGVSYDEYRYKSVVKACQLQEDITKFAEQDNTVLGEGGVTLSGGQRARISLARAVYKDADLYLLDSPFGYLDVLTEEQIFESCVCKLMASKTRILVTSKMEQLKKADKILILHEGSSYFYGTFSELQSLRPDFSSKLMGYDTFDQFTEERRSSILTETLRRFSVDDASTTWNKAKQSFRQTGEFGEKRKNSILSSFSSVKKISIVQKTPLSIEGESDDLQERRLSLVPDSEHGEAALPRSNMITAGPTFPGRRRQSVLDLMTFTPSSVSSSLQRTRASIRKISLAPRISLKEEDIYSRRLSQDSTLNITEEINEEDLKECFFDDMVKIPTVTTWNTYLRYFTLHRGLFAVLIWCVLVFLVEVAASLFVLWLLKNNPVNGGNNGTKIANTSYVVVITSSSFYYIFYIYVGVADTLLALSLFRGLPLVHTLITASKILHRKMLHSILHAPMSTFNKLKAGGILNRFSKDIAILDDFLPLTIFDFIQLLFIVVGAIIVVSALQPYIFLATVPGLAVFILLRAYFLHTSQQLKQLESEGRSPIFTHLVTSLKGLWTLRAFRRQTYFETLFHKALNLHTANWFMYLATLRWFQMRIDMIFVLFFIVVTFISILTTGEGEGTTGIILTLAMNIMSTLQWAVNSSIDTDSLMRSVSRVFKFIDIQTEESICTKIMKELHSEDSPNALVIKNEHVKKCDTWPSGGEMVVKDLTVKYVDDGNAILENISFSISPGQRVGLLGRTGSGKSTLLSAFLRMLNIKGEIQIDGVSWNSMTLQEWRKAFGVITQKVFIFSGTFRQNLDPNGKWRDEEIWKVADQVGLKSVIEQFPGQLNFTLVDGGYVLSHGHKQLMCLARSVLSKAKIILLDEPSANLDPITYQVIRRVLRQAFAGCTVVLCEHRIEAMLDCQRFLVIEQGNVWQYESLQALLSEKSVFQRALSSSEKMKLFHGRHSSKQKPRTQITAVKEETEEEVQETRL

Structure (SMILES)	fold change (FC) [1]	EC50 [4]	further results
COc1cc(CNC(=O)c2sc3ccccc3c2OC)cc(OC)c1	1.7		
COc1ccc(CNC(=O)c2sc3ccc(Cl)cc3c2OC)c(OC)c1			Activity [2]: 50%
CN(C(=O)Cc1c[nH]c2ccccc12)[C@H](C(=O)Nc1ccc(-n2cc(CCCF)nn2)cc1)c1ccccc1			EC50 [3]: 1100 nM
COc1c(C(=O)NCc2ccccc2Br)sc2ccccc12	2.4		
CCc1ccc(NS(=O)(=O)c2cn(Cc3ccccc3C#N)c3ncccc23)cc1		700 nM	
CN(C(=O)Cc1c[nH]c2ccccc12)[C@H](C(=O)Nc1ccc(F)cc1)c1ccccc1			EC50 [3]: 90 nM
CCc1ccc(NS(=O)(=O)c2cn(Cc3ccccn3)c3ncccc23)cc1		600 nM	
CCCCCn1cc(S(=O)(=O)Nc2ccc(CC)cc2)c2cccnc21		1000 nM	
COc1c(C(=O)NCc2ccc(F)cc2Cl)sc2ccccc12	2		
CC(C)c1ccc(NC(=O)C(c2ccccc2)N(C)C(=O)Cc2c[nH]c3ccccc23)cc1 (stereo unspecified)			Ratio EC50 [5]: 100; EC50 [6]: 70 nM
